Measured values reported in PMC5094555, “Human Mitochondrial Cytochrome b Variants Studied in Yeast: Not All Are Silent Polymorphisms” (Human Mutation, 2016).
pIC50: −log10 of the molar value.

Columns and labels:
[1] = molecular target: yeast complex III, cytochrome b p.Ser172Gly (Saccharomyces cerevisiae, UniProt P00163, S172G); type: biochemical; details: this work
[2] = tested on: yeast AD1-9 strains (wild type and cytochrome b mutants); experiment: Respiratory growth assay with increasing concentration of drug; type: cell-based, Saccharomyces cerevisiae
Protocol: Diploids were used in the experiments, except for monitoring the sensitivity of respiratory growth to atovaquone, where the AD1‐9 series was used.
Yeast strains were grown in 5 ml of YPEth medium with increasing concentration of drug. Cultures were inoculated from 1‐day‐old cultures on YPG to an OD600 nm of 0.2 and incubated at 28°C with vigorous shaking to maintain good aeration. Cell densities measured as OD600 nm were estimated 2 or 3 days after inoculation.

[3] = molecular target: T1, yeast complex III (wild type) (Saccharomyces cerevisiae, UniProt P00163); design: method as in Vallières et al., 2013; details: atovaquone; per nM complex III; yeast enzyme; ref Vallières et al., 2013; read-out: IC50 (midpoint inhibition concentration); cited from earlier work
T1 construct: Mitochondria were added to obtain a final concentration of 5–30 nM of complex III; endogenous in cells; host or cells: mitochondria prepared from S. cerevisiae grown in YPGal (diploid strains)

bovine complex III = molecular target: T2, bovine complex III (Bos taurus, UniProt P00157); design: method as in Vallières et al., 2013; details: atovaquone; per nM complex III; bovine enzyme; ref Vallières et al., 2013; read-out: IC50 (midpoint inhibition concentration); cited from earlier work
T2 construct: catalytic activity of bovine and yeast complex III, using purified mitochondria; from tissue

[4] = tested on: malaria parasite complex III; design: method as in Biagini et al., 2008; details: atovaquone; malaria parasite enzyme; ref Biagini et al., 2008; cited from earlier work
[5] = tested on: yeast complex III, cytochrome b CysCysVal 133-135 ValLeuPro; design: method as in Fisher and Meunier 2005; details: ref Fisher and Meunier 2005; cited from earlier work
[6] = tested on: yeast complex III, cytochrome b p.His141Tyr; design: method as in Vallières et al. 2013; details: ref Vallières et al. 2013; cited from earlier work
[7] = tested on: yeast complex III, cytochrome b p.His141Phe; design: method as in Fisher and Meunier 2005; details: ref Fisher and Meunier 2005; cited from earlier work

For O=C1C(O)=C([C@H]2CC[C@H](c3ccc(Cl)cc3)CC2)C(=O)c2ccccc21 [atovaquone], the “atovaquone sensitivity (IC50 mutant/IC50 control)” value (“atovaquone sensitivity” below) [1] was 1.1, the “Sensitivity of respiratory growth to atovaquone” value (“Sensitivity … to atovaquone” below) ([2]; strain HS-p.Ser172Asn (humanised Qo site), versus control strain (Fig. 3C)) was “inhibited at slightly higher doses of atovaquone than the control strain” and the “Sensitivity … to atovaquone” value ([2]; strain HS-p.Ser172Asn versus HS-p.Ser172Asp (Fig. 3C)) was “more sensitive”. For the same molecule, the “Sensitivity … to atovaquone” value ([2]; strain HS-p.Ser172Asp (humanised Qo site), versus control strain (Fig. 3C)) was “inhibited at slightly higher doses of atovaquone than the control strain”, the “Sensitivity … to atovaquone” value ([2]; strain p.Ser172Asn, compared with p.Ser172Asp and p.Leu150Phe (Fig. 3B)) was “increased sensitivity compared with p.Ser172Asp” and the “Sensitivity … to atovaquone” value ([2]; strain p.Ser172Gly, compared with p.Ser172Asp and p.Leu150Phe (Fig. 3B)) was “increased sensitivity compared with p.Ser172Asp”. For the same molecule, the “Sensitivity … to atovaquone” value ([2]; wt strain, compared with p.Ser172Asp and p.Leu150Phe (Fig. 3B)) was “increased sensitivity compared with p.Ser172Asp”, the IC50 [3] was 4 nM and the IC50 (bovine complex III) was 75 nM. For the same molecule, the pIC50 [4] was roughly 8.52, the “atovaquone sensitivity” value [5] was 3.5 and the “atovaquone sensitivity” value [6] was 0.5. The “atovaquone sensitivity” value [7] was 0.4.
